Results reported in EP0456229A2, “Arylsulfatase” (Bristol-Myers Squibb Company, priority 1990, dated 1991).
Each block holds one compound with its values, some of them ahead of it.

Assays:
[1] = compared with etoposide; cited from earlier work
Es-1 sulfatase [2] = experiment: Substrate specificity: hydrolysis of etoposide derivatives (TLC); assay type: biochemical, Streptomyces griseorubiginosus S980-14; settings: 0.6 u enzyme, 50 mM Tris-HCl pH 7.5, 37°C for 18 hours, silica gel TLC
Experimental: • (a) Optimum pH. The stock enzyme solution (0.6 u in 50 µl of 50 mM Tris-HCl, pH 7.5) was added to 100 µl each of the following buffers: 500 mM sodium acetate (pH 4.0-5.5), 500 mM Tris-maleate (pH 5.5-7.5), 500 mM Tris-HCl (pH 7.5-9.0), and 500 mM glycine-NaoH (pH 9.0-10.0). The substrate, p-nitrophenylsulfate, was dissolved in each of the above buffers (1 mg/ml). The enzyme-buffer solution (150 µl) was mixed with 50 µl of the substrate solution in the same buffer as the enzyme, and the mixture was incubated for 30 minutes at 37°C. The reaction was quenched by addition of 100 µl of 0.2 N sodium hydroxide solution. The enzyme activity in each buffer was determined spectrophotometrically by UV at 415 nm. […] The stock enzyme solution was dialyzed against water to remove salts. The dialyzed solution (10 µl) was mixed with 40 µl of 50 mM Tris-HCl buffer (pH 7.5). An aliquot (10 µl) of this solution was mixed with 40 µl each of the buffer listed in (a) and incubated for 30 minutes at 30°C. To this solution (50 µl) were added 100 µl of 500 mM Tris-HCl (pH 9.0) and 50 µl of substrate in water (1 mg/ml), and the mixture was incubated at 37°C for 30 minutes to determine the residual enzyme activity. […] Enzyme (0.6 u) in 150 µl of 50 mM Tris-HCl (pH 8.5) was incubated with p-nitrophenylsulfate in the same buffer (1 mg/ml, 50 µl) for 30 minutes at various temperatures. […] Enzyme preparations (0.6 u) in 50 mM Tris-HCl (150 µl, pH 8.5) were incubated for 15 minutes at various temperatures and then cooled in an ice bath. p-Nitrophenylsulfate in the same buffer (1 mg/ml, 50 µl) was added to the enzyme solution, and the mixture was incubated for 30 minutes at 37°C. […] Fifty µl of enzyme solution (0.6 u in 50 mM Tris-HCl, pH 8.5), 80 µl of 50 mM Tris-HCl (pH 8.5), 50 µl of p-nitrophenyl sulfate (1 mg/ml in same buffer), and 20 µl of ion (10 mM) were mixed. The solution was incubated for 30 minutes at 37°C. p-Nitrophenol released was spectrophotometrically assayed by UV at 415 nm. […] The protocol used in (e) was followed with the exception that 1 mM of an enzyme inhibitor was used instead of a metal ion. […] The protocol used in (e) was followed, except that 5 mM of a salt was used instead of 10 mM of a metal ion. […] Four etoposide derivatives were tested as substrate for the sulfatase of the invention. The substrates are: etoposide 4'-sulfate (III), 2'',3''-di-O-acetyl-etoposide-4'-sulfate (IV), etoposide 2''-sulfate (V), and etoposide 3''-sulfate (VI). […] After 18 hours, 100 µl of methanol was added, and 100 µl of sample was analyzed on a silica gel TLC plate using a solvent system consisting of chloroform-methanol (10:1 v/v). […]

Es-1 sulfatase [3] = experiment: Substrate specificity: hydrolysis of BU-3285T (TLC, UV densitometry); assay type: biochemical, Streptomyces griseorubiginosus S980-14; settings: 0.6 u Es-1 sulfatase, pH 8.5, 18 hours at 37°C, UV densitometry at 254 nm
Experimental: (§1) • (a) Optimum pH. The stock enzyme solution (0.6 u in 50 µl of 50 mM Tris-HCl, pH 7.5) was added to 100 µl each of the following buffers: 500 mM sodium acetate (pH 4.0-5.5), 500 mM Tris-maleate (pH 5.5-7.5), 500 mM Tris-HCl (pH 7.5-9.0), and 500 mM glycine-NaoH (pH 9.0-10.0). The substrate, p-nitrophenylsulfate, was dissolved in each of the above buffers (1 mg/ml). The enzyme-buffer solution (150 µl) was mixed with 50 µl of the substrate solution in the same buffer as the enzyme, and the mixture was incubated for 30 minutes at 37°C. The reaction was quenched by addition of 100 µl of 0.2 N sodium hydroxide solution. The enzyme activity in each buffer was determined spectrophotometrically by UV at 415 nm. […] The stock enzyme solution was dialyzed against water to remove salts. The dialyzed solution (10 µl) was mixed with 40 µl of 50 mM Tris-HCl buffer (pH 7.5). An aliquot (10 µl) of this solution was mixed with 40 µl each of the buffer listed in (a) and incubated for 30 minutes at 30°C. To this solution (50 µl) were added 100 µl of 500 mM Tris-HCl (pH 9.0) and 50 µl of substrate in water (1 mg/ml), and the mixture was incubated at 37°C for 30 minutes to determine the residual enzyme activity. […] After 18 hours, 100 µl of methanol was added, and 100 µl of sample was analyzed on a silica gel TLC plate using a solvent system consisting of chloroform-methanol (10:1 v/v). […]

Es-1 sulfatase [4] = experiment: Effect of ions / EDTA treatment and Ca2+ recovery of sulfatase activity; assay type: biochemical, Streptomyces griseorubiginosus S980-14
Experimental: • (a) Optimum pH. The stock enzyme solution (0.6 u in 50 µl of 50 mM Tris-HCl, pH 7.5) was added to 100 µl each of the following buffers: 500 mM sodium acetate (pH 4.0-5.5), 500 mM Tris-maleate (pH 5.5-7.5), 500 mM Tris-HCl (pH 7.5-9.0), and 500 mM glycine-NaoH (pH 9.0-10.0). The substrate, p-nitrophenylsulfate, was dissolved in each of the above buffers (1 mg/ml). The enzyme-buffer solution (150 µl) was mixed with 50 µl of the substrate solution in the same buffer as the enzyme, and the mixture was incubated for 30 minutes at 37°C. The reaction was quenched by addition of 100 µl of 0.2 N sodium hydroxide solution. The enzyme activity in each buffer was determined spectrophotometrically by UV at 415 nm. […] The stock enzyme solution was dialyzed against water to remove salts. The dialyzed solution (10 µl) was mixed with 40 µl of 50 mM Tris-HCl buffer (pH 7.5). An aliquot (10 µl) of this solution was mixed with 40 µl each of the buffer listed in (a) and incubated for 30 minutes at 30°C. To this solution (50 µl) were added 100 µl of 500 mM Tris-HCl (pH 9.0) and 50 µl of substrate in water (1 mg/ml), and the mixture was incubated at 37°C for 30 minutes to determine the residual enzyme activity. […] Enzyme (0.6 u) in 150 µl of 50 mM Tris-HCl (pH 8.5) was incubated with p-nitrophenylsulfate in the same buffer (1 mg/ml, 50 µl) for 30 minutes at various temperatures. […] Enzyme preparations (0.6 u) in 50 mM Tris-HCl (150 µl, pH 8.5) were incubated for 15 minutes at various temperatures and then cooled in an ice bath. p-Nitrophenylsulfate in the same buffer (1 mg/ml, 50 µl) was added to the enzyme solution, and the mixture was incubated for 30 minutes at 37°C. […] Fifty µl of enzyme solution (0.6 u in 50 mM Tris-HCl, pH 8.5), 80 µl of 50 mM Tris-HCl (pH 8.5), 50 µl of p-nitrophenyl sulfate (1 mg/ml in same buffer), and 20 µl of ion (10 mM) were mixed. […] After 18 hours, 100 µl of methanol was added, and 100 µl of sample was analyzed on a silica gel TLC plate using a solvent system consisting of chloroform-methanol (10:1 v/v). […]

Es-1 sulfatase [5] = experiment: Effect of salts on sulfatase activity; assay type: biochemical, Streptomyces griseorubiginosus S980-14; settings: 5 mM of a salt, 30 minutes at 37°C, pH 8.5
Experimental: as §1

substrate for the enzyme (Es-1 sulfatase [2]): are substrates
SMILES: COc1cc(C2c3cc4c(cc3C(OC3OC5COC(C)OC5C(OC(C)=O)C3OC(C)=O)C3COC(=O)C23)OCO4)cc(OC)c1OS(=O)(=O)O (centres unmarked) [(IV), 2'',3''-di-O-acetyl-etoposide-4'-sulfate]

substrate for the enzyme (Es-1 sulfatase [2]): are not
SMILES: COc1cc(C2c3cc4c(cc3C(OC3OC5COC(C)OC5C(O)C3OS(=O)(=O)O)C3COC(=O)C23)OCO4)cc(OC)c1O (centres unmarked) [(V), etoposide 2''-sulfate]

substrate for the enzyme (Es-1 sulfatase [2]): are not
SMILES: COc1cc(C2c3cc4c(cc3C(OC3OC5COC(C)OC5C(OS(=O)(=O)O)C3O)C3COC(=O)C23)OCO4)cc(OC)c1O (centres unmarked) [(VI), etoposide 3''-sulfate]

sulfatase activity (effect of salts) (Es-1 sulfatase [5]): strongly inhibited
SMILES: O=P(O)(O)O [phosphate ion]

The next lines start with the compound.

SMILES: COc1cc([C@@H]2c3cc4c(cc3[C@@H](O[C@@H]3O[C@@H]5CO[C@@H](C)O[C@H]5[C@H](O)[C@H]3O)[C@H]3COC(=O)[C@H]23)OCO4)cc(OC)c1OS(=O)(=O)O [(III), etoposide 4'-sulfate]
cytotoxicity [1]: much less cytotoxic than etoposide itself | substrate for the enzyme (Es-1 sulfatase [2]): are substrates

SMILES: CCCCC/C=C/C=C\C=C/C(O)C(C)C(C/C=C/C1OC(=O)C=CC1O)OS(=O)(=O)O (centres unmarked) [BU-3285T]
conversion to its desulfated derivative (Es-1 sulfatase [3]): approximately 70%

SMILES: [Ca+2] [Ca⁺⁺]
sulfatase activity restored (Es-1 sulfatase [4]; addition of 1 mM of Ca⁺⁺ to the EDTA treated enzyme): 95% | sulfatase activity level (Es-1 sulfatase [4]; calcium ion concentrations over 1 mM added to EDTA treated enzyme): close to the original level

SMILES: O=C(O)CN(CCN(CC(=O)O)CC(=O)O)CC(=O)O [EDTA]
sulfatase activity (Es-1 sulfatase [4]; enzyme treated with 10 mM of EDTA followed by dialysis against water at 4°C): disappeared

SMILES: [Cl-].[Na+] [sodium chloride]
sulfatase activity (effect of salts) (Es-1 sulfatase [5]): strongly inhibited
